ChEMBL document CHEMBL3885861, “Open TG-GATES”

Species: Rattus norvegicus
Assay: Open TG-GATES - Regimen: Single
Format: toxicity, organism-based, Sprague-Dawley
Design: regimen Single, gender Male, age 6 weeks
Conditions: in vivo, po, 0 mg/kg, route gavage, dose level Control; for APTT / Bas / Eos / Fbg / Hb / Ht / Lym / MCH / MCHC / MCV / Mono / Neu / PT / Plat / RBC / Ret / WBC: tissue Blood; for KIDNEY_L / KIDNEY_R / KIDNEY_TOTAL: tissue Kidney; for LIVER: tissue Liver; for A/G / ALP / ALT / AST / BUN / CRE / Ca / Cl / DBIL / GLC / IP / K / LDH / Na / PL / RALB / TBIL / TC / TG / TP / gamma-GTP: tissue Plasma

`ClC(Cl)(Cl)Cl` [CARBON TETRACHLORIDE] gave a TERMINAL_BW (3 h) of 204.7 g, an APTT (3 h) of 16.7 s and a Bas (3 h) of 0%. For the same compound, the Eos (3 h) was 1%, the Fbg (3 h) was 245 mg/dL and the Hb (3 h) was 13 g/dL. It also gave a Ht (3 h) of 37.3%, a Lym (3 h) of 73.8% and an MCH (3 h) of 21.7 pg. It also gave an MCHC (3 h) of 34.8%, an MCV (3 h) of 62.3 fL and a Mono (3 h) of 3.6%. For the same compound, the Neu (3 h) was 21.6%, the PT (3 h) was 12 s and the Plat (3 h) was 132.6 x10_4/uL. The RBC (3 h) was 599 x10_4/ul, the Ret (3 h) was 8.6% and the WBC (3 h) was 103.4 x10_2/uL. The KIDNEY_L (3 h) was 0.9 g, the KIDNEY_R (3 h) was 0.9 g and the KIDNEY_TOTAL (3 h) was 1.8 g. For the same compound, the LIVER (3 h) was 10 g, the A/G (3 h) was 1.6 and the ALP (3 h) was 947 IU/L. For the same compound, the ALT (3 h) was 37.2 IU/L, the AST (3 h) was 66.6 IU/L and the BUN (3 h) was 13.2 mg/dL. The CRE (3 h) was 0.4 mg/dL, the Ca (3 h) was 11 mg/dL and the Cl (3 h) was 104.2 meq/L. The DBIL (3 h) was 0.3 mg/dL, the GLC (3 h) was 207 mg/dL and the IP (3 h) was 9 mg/dL. It also gave a K (3 h) of 3.9 meq/L, an LDH (3 h) of 209 IU/L and a Na (3 h) of 139.6 meq/L. For the same compound, the PL (3 h) was 179.8 mg/dL, the RALB (3 h) was 3.4 g/dL and the TBIL (3 h) was 0.3 mg/dL. It also gave a TC (3 h) of 87.2 mg/dL, a TG (3 h) of 159.6 mg/dL and a TP (3 h) of 5.6 g/dL. The gamma-GTP (3 h) was 0.6 IU/L, the TERMINAL_BW (6 h) was 204.3 g and the APTT (6 h) was 17 s. It also gave a Bas (6 h) of 0%, an Eos (6 h) of 0.8% and a Fbg (6 h) of 230.8 mg/dL. It also gave a Hb (6 h) of 13 g/dL, a Ht (6 h) of 37.6% and a Lym (6 h) of 69%. The MCH (6 h) was 22 pg, the MCHC (6 h) was 34.6% and the MCV (6 h) was 63.4 fL. For the same compound, the Mono (6 h) was 3.4%, the Neu (6 h) was 26.6% and the PT (6 h) was 12.1 s. It also gave a Plat (6 h) of 140.4 x10_4/uL, an RBC (6 h) of 593.6 x10_4/ul and a Ret (6 h) of 8.9%. It also gave a WBC (6 h) of 98.9 x10_2/uL, a KIDNEY_L (6 h) of 0.9 g and a KIDNEY_R (6 h) of 0.9 g. For the same compound, the KIDNEY_TOTAL (6 h) was 1.8 g, the LIVER (6 h) was 9 g and the A/G (6 h) was 1.5. For the same compound, the ALP (6 h) was 1166.6 IU/L, the ALT (6 h) was 31.4 IU/L and the AST (6 h) was 62.8 IU/L. For the same compound, the BUN (6 h) was 9.6 mg/dL, the CRE (6 h) was 0.4 mg/dL and the Ca (6 h) was 10.7 mg/dL. It also gave a Cl (6 h) of 104 meq/L, a DBIL (6 h) of 0.094 mg/dL and a GLC (6 h) of 196.8 mg/dL. It also gave an IP (6 h) of 9.8 mg/dL, a K (6 h) of 4.1 meq/L and an LDH (6 h) of 189.2 IU/L. The Na (6 h) was 139.8 meq/L, the PL (6 h) was 161.4 mg/dL and the RALB (6 h) was 3.3 g/dL. It also gave a TBIL (6 h) of 0.2 mg/dL, a TC (6 h) of 89.4 mg/dL and a TG (6 h) of 61 mg/dL. The TP (6 h) was 5.4 g/dL, the gamma-GTP (6 h) was 1 IU/L and the TERMINAL_BW (9 h) was 201.8 g. For the same compound, the APTT (9 h) was 16.1 s, the Bas (9 h) was 0% and the Eos (9 h) was 0.8%. For the same compound, the Fbg (9 h) was 222.4 mg/dL, the Hb (9 h) was 12.6 g/dL and the Ht (9 h) was 36.6%. For the same compound, the Lym (9 h) was 76.6%, the MCH (9 h) was 22.2 pg and the MCHC (9 h) was 34.6%. For the same compound, the MCV (9 h) was 64.2 fL, the Mono (9 h) was 2.2% and the Neu (9 h) was 20%. The PT (9 h) was 12.2 s, the Plat (9 h) was 131.9 x10_4/uL and the RBC (9 h) was 570 x10_4/ul. The Ret (9 h) was 9.7%, the WBC (9 h) was 82.1 x10_2/uL and the KIDNEY_L (9 h) was 0.9 g. It also gave a KIDNEY_R (9 h) of 0.9 g, a KIDNEY_TOTAL (9 h) of 1.8 g and an LIVER (9 h) of 8.6 g. It also gave an A/G (9 h) of 1.4, an ALP (9 h) of 961.6 IU/L and an ALT (9 h) of 30 IU/L. It also gave an AST (9 h) of 62.6 IU/L, a BUN (9 h) of 11.2 mg/dL and a CRE (9 h) of 0.4 mg/dL. For the same compound, the Ca (9 h) was 10.3 mg/dL, the Cl (9 h) was 102.4 meq/L and the DBIL (9 h) was 0.066 mg/dL. For the same compound, the GLC (9 h) was 207.2 mg/dL, the IP (9 h) was 10.7 mg/dL and the K (9 h) was 3.7 meq/L. It also gave an LDH (9 h) of 163 IU/L, a Na (9 h) of 139.2 meq/L and a PL (9 h) of 129.8 mg/dL. For the same compound, the RALB (9 h) was 3.1 g/dL, the TBIL (9 h) was 0.1 mg/dL and the TC (9 h) was 69.8 mg/dL. For the same compound, the TG (9 h) was 35.6 mg/dL, the TP (9 h) was 5.4 g/dL and the gamma-GTP (9 h) was 1.2 IU/L. The TERMINAL_BW (24 h) was 215.9 g, the APTT (24 h) was 18.1 s and the Bas (24 h) was 0.2%. It also gave an Eos (24 h) of 1%, a Fbg (24 h) of 256.8 mg/dL and a Hb (24 h) of 13.7 g/dL. The Ht (24 h) was 38.8%, the Lym (24 h) was 82% and the MCH (24 h) was 22.5 pg. It also gave an MCHC (24 h) of 35.3%, an MCV (24 h) of 63.8 fL and a Mono (24 h) of 2.4%. The Neu (24 h) was 14.2%, the PT (24 h) was 11.8 s and the Plat (24 h) was 140.8 x10_4/uL. The RBC (24 h) was 607.2 x10_4/ul, the Ret (24 h) was 8% and the WBC (24 h) was 105.9 x10_2/uL. It also gave a KIDNEY_L (24 h) of 0.9 g, a KIDNEY_R (24 h) of 0.9 g and a KIDNEY_TOTAL (24 h) of 1.9 g. It also gave an LIVER (24 h) of 10.6 g, an A/G (24 h) of 1.6 and an ALP (24 h) of 1231.6 IU/L. The ALT (24 h) was 37.2 IU/L, the AST (24 h) was 66.6 IU/L and the BUN (24 h) was 15 mg/dL. It also gave a CRE (24 h) of 0.4 mg/dL, a Ca (24 h) of 10.9 mg/dL and a Cl (24 h) of 103 meq/L. It also gave a DBIL (24 h) of 0.088 mg/dL, a GLC (24 h) of 202.2 mg/dL and an IP (24 h) of 7.4 mg/dL. The K (24 h) was 3.8 meq/L, the LDH (24 h) was 186.2 IU/L and the Na (24 h) was 140 meq/L. For the same compound, the PL (24 h) was 156.2 mg/dL, the RALB (24 h) was 3.5 g/dL and the TBIL (24 h) was 0.2 mg/dL. The TC (24 h) was 79.2 mg/dL, the TG (24 h) was 100 mg/dL and the TP (24 h) was 5.7 g/dL. For the same compound, the gamma-GTP (24 h) was 1.2 IU/L.
